Measurements as given in patent US11229633B2, “Arimoclomol formulation” (Orphazyme A/S, priority 2014, dated 2022).

What was measured:
human OAT3 = target: T1, human OAT3 (Homo sapiens, UniProt Q8TCC7); test: Uptake transporter substrate feasibility assay, OAT3; format: in vitro ADME; set-up: key to Substrate: NIO: No interaction observed
T1 construct: expressed in transfected cells; host or cells: MDCKII (protocol UPT-MDCKII-OAT3-E3S; control: parental MDCKII)
T1 sequence (Q8TCC7 1-542): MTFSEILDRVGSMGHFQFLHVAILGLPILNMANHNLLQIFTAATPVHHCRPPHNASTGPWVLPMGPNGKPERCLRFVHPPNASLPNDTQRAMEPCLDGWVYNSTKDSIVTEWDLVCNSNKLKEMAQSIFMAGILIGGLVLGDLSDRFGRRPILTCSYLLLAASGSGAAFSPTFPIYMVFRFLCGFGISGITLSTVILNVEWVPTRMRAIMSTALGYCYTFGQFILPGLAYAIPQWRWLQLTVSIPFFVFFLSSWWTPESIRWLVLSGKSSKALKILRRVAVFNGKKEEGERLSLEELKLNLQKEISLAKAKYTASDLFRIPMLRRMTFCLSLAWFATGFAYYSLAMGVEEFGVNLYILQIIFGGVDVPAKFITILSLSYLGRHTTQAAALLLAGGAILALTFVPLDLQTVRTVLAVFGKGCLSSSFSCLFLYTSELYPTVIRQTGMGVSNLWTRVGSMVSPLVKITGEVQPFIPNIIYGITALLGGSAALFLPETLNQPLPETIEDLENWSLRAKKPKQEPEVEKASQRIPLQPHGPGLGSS
Procedure: Uptake experiments were performed using CHO, MDCKII, or HEK293 cells stably expressing the respective uptake transporters.
Cells were cultured at 37±1° C. in an atmosphere of 95:5 air:CO2 as described in Table 4 and were plated onto standard 24-well tissue culture plates at 2×10^5 cells/well. The uptake of the TA was determined using cells overexpressing the respective uptake transporter and control cells, at two incubation time points (2 and 20 min) and at two concentrations (1 and 10 μM) of TA to determine whether or not the TA was actively taken up into the cells.
Before the experiment, the medium was removed and the cells were washed twice with 300 μl of HK buffer (pH 7.4) (prepared from Sigma chemicals). Cellular uptake of TA into the cells was measured by adding 300 μl of HK buffer containing TA and incubating them at 37±1° C. Reactions were quenched by removing the HK buffer containing the TA and the cells were washed twice with 300 μl of HK buffer. Cells were lysed by adding 300 μl of MeOH:H2O (2:1) and incubated for 20 minutes at 4±1° C. The amount of TA in the cell lysate was determined by LC-MS/MS. The amount of protein in each well was quantified using the BCA kit for protein determination (Sigma-Aldrich, St Louis, Mo., USA). Uptake of the probe substrate in control cells provided background activity values for all data points. Incubation without reference inhibitor (solvent only) provided 100% activity values. A reference inhibitor served as positive control for inhibition.
The fold accumulation value was defined as the ratio of uptake of TA or probe substrate into transfected and control cells:
[formula] UPTTRP: accumulated amount of TA or probe substrate in transfected cells normalized by protein content [pmol/mg protein] UPTCTL: accumulated amount of TA or probe substrate in control cells normalized by protein content [pmol/mg protein]
If the fold accumulation is >2 and can be inhibited by a known inhibitor of the transporter, the TA can be considered to be a substrate of the respective transporter.

OATP1B3 = target: T2, OATP1B3 (Homo sapiens, UniProt Q9NPD5); test: Substrate statement, OATP1B3; format: in vitro ADME
T2 sequence (Q9NPD5 1-702): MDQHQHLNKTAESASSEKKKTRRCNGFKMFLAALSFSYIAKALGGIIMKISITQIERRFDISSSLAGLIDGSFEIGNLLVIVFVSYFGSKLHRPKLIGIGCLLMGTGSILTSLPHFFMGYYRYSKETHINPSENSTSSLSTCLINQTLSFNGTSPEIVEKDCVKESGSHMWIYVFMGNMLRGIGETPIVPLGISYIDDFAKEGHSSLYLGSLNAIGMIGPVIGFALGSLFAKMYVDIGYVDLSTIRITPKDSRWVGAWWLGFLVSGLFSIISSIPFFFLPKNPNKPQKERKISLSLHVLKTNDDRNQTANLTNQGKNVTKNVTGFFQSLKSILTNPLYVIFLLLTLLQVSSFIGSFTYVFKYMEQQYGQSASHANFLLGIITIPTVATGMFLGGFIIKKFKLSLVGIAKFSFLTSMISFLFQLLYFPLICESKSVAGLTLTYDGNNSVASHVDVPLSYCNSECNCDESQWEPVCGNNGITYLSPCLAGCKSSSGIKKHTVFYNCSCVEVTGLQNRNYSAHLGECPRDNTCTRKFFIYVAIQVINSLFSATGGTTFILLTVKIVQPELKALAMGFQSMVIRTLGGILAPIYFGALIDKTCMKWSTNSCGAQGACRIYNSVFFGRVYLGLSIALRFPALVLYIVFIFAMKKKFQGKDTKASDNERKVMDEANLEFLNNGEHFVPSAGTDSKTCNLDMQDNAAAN

[1] = in vivo; cited from earlier work
OATP1B1 = target: T3, OATP1B1 (Homo sapiens, UniProt Q9Y6L6); test: Substrate statement, OATP1B1; format: in vitro ADME
T3 sequence (Q9Y6L6 1-691): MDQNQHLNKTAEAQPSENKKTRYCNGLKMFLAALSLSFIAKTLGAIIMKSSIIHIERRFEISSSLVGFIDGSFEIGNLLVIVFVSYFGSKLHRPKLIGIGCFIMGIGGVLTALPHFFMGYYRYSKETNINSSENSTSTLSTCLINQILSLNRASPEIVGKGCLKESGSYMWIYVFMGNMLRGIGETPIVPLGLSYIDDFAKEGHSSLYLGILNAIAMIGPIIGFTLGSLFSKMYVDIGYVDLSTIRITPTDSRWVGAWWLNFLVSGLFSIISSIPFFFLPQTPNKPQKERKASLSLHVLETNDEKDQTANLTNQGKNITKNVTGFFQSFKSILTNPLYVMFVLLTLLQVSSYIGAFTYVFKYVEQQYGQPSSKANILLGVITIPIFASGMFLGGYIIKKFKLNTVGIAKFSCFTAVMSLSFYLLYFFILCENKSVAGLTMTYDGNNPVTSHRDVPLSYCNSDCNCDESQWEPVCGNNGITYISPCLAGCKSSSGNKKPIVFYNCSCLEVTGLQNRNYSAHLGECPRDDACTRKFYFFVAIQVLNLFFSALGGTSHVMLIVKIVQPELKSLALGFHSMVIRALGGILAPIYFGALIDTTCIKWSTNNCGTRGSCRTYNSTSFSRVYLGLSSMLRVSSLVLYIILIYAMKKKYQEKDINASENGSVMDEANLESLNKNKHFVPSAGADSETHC

[2] = Stability at conventional extrusion temperature; format: physicochemical; details: 100-200° C.

With [O-][n+]1cccc(C(Cl)=NOCC(O)CN2CCCCC2)c1 (centres unmarked) [Arimoclomol, N-[2-hydroxy-3-(1-piperidinyl)-propoxy]-pyridine-1-oxide-3-carboximidoyl chloride] the “Substrate of the transporter (in words)” value (human OAT3) was “not a substrate”, the Fold accumulation (human OAT3; 1 μM, 2 min) was 0.86 and the Fold accumulation (human OAT3; 1 μM, 20 min) was 0.86. For the same compound, the Fold accumulation (human OAT3; 10 μM, 2 min) was 0.85, the Fold accumulation (human OAT3; 10 μM, 20 min) was 0.82 and the Fold accumulation (human OAT3; 1 and 10 μM, 2 and 20 min) was < 2. The Substrate (human OAT3; Table 2) was “NIO”, the “Substrate of the transporter (in words)” value (OATP1B3) was “not a substrate” and the plasma half-life [1] was 2 to 4 h. The “Substrate of the transporter (in words)” value (OATP1B1) was “not a substrate” and the “Stability at conventional extrusion temperature” value [2] was “not stable”.
